{"source": "patent US20240058240A1", "about": "“COMPOUNDS AS SELF-TANNING SUBSTANCES AND TANNING COMPOSITIONS THEREOF” (CHEMCOM S.A., priority 2020, published 2024)", "format_in_all_cases": "cell-based", "key": {"human skin explants [1]": {"system": "human skin explants", "assay": "Cellular viability of human skin living explants (Masson's trichrome, Goldner variant)", "method": "Human skin explants of an average diameter of 12 mm (±1 mm) were prepared on an abdoplasty coming from a person (reference: P2237AB47—phototype II) or person (reference P2196-AB61, phototype III). The explants were kept in survival in BEM culture medium (BIO-EC's Explants Medium) at 37° C. in a humid, 5%-CO2 atmosphere.\nThe Ambermax was diluted in 0.1% ethanol at the following concentrations: 0.3 μM, 1 μM, 3 μM, 10 μM, 15 μM, 30 μM and 100 μM. The diluted solutions were stored at 4° C. during the study.\nThe explants were treated for 10 days with Ambermax (see products application below) or with no treatment.\nOn day 0 (DO), day 3 (D3), day 5 (D5), day 7 (D7) and day 10 (D10), the tested products (compounds for use in the invention) were 1) applied topically using a small spatula based on 2 μl per explant (2 mg per cm^2) at the indicated concentrations, 2) applied intradermatically by injections into the dermis using a syringe with 20 μL of product for each explant or 3) applied systemically by dilutions of the compound of invention in the culture media at the indicated concentration. […] The culture medium was half renewed (1 ml/well) on day 3, day 5, day 7 and day 10.\nOn day 0 (D0), D2, D3, D6, and D8, the tested products (compounds for use in the invention) were applied topically using a small spatula on the basis of 2 μl per explant (2 mg per cm^2). […] The culture medium was half renewed (1 ml/well) on D2, D3, D6 and D8.\nAfter fixation for 24 hours in buffered formalin solution, the samples were dehydrated and impregnated in paraffin using a Leica PEARL dehydration automat. The samples were then paraffin-embedded using a Leica EG 1160 embedding station. 5-μm-thick sections of paraffin-embedded formol fixed sections were realized using a Leica RM 2125 Minot-type microtome, and the sections were then mounted on Superfrost® Plus glass slides. Microscopical observations were realized using a Leica DMLB, a BX43 or BX63 Olympus microscope. Pictures were digitized with an Olympus DP72 or DP74 camera and the Cell^D or cellSens data storing software.\nThe cell viability of epidermal and papillary dermal structures was observed on formalin-fixed paraffin-embedded (FFPE) skin sections after Masson's trichrome staining, Goldner variant. The cell viability was assessed by microscopical observation. Concerned batches: T0, (TUV, P1→P10) on D5 or D6 and D10.\nThe effects ex vivo was shown by treating human biopsies for 10 days (human living explants: 12 mm+/−1, donor, skin type III) with a systemic application, intradermic injections or a topical application of compounds according to embodiments of the invention (Ambermax). Concentrations of 1, 5 and 10 μM of this compound were used for systemic application and intradermic injections on the human explants. For topical application, biopsies were treated with 10, 30, and 100 μM of Ambermax. As control, non-treated explants or/and explants exposed to chronic UVA-irradiations were used as described in the experimental procedures."}, "[2]": {"system": "Normal Human Epidermal Melanocytes moderately pigmented (NHEMs-MP)", "assay": "Melanin content (pigmentation) of NHEMs-MP in culture", "conditions": "3.16 μM, 4 days, NHEMs-MP, in comparison with DOPA (50 μM)", "method": "This primary culture was cultivated in medium M254 supplemented (LIFE TECHNOLOGIES; ref:M-254-500) with HMGS (human melanocyte growth supplement; LIFE TECHNOLOGIES; ref: S-002-5) and gentamycin (LIFE TECHNOLOGIES; ref:15710-049) and maintained in a humidified incubator at 37° C. with a 5% CO2 atmosphere. For experiments (see below), cells were seeded at a density of 9×10^4 cells/well (100 μL/well) and cultured at 37° C. under a 5% CO2.\nThe NHEMs-MP were treated for 4 days, with a medium refresh after 2 days of treatment—Amberketal, Ambermax and with the reference molecule (L-DOPA)—when the culture media are collected and stored at −80° C. as shown in FIG. 2. At the end of the treatments, the culture media were collected a second time, pooled with the media collected at day 2 and centrifuged for 30 minutes (14000 rpm). The pellet obtained after centrifugation and NHEMs-MP treated cells were lysed in 150 μl of a NaOH 1M solution. 5 μl of each cell lysate were used for protein quantification using BCA protein assay. The remaining 145 μl of the lysates were heated at 80° C. during 1 h. The optical density was measured at 490 nm and the melanin content was determined by comparison with a standard curve of synthetic melanin and reported to the quantity of protein present in each cell well tested.\nThe effects of these 2 compounds, namely Ambermax and Amberketal, on the melanin production were evaluated as described above. Based on MTS results, moderately pigmented (MP) NHEMs were treated with these 2 compounds at one concentration (100 μM for Amberketal and 3.16 μM for Ambermax) for 4 days. In parallel, cell cultures were also treated with Ethanol 0.1%, a concentration corresponding to the test compounds solvent, and with a known modulator of pigmentation (L-DOPA 50 μM). […] At the end of the treatments (D4), cells were lysed, the melanin content was quantified by spectrophotometry and normalized to the amount of proteins. Extracellular melanin was also evaluated by the same methodology after centrifugation of the culture media."}, "human skin explants [3]": {"system": "human skin explants", "assay": "Melanogenesis in human skin living explants (Masson's Fontana staining, image analysis)", "conditions": "systemic treatment, 3 and 5 μM, after 5 days, compared with chronic UVA"}}, "data": [{"substance": "Ambermax [Compound 16]", "values": [{"measurement": "explant toxicity", "setting": "human skin explants [1]; 0.3-100 μM, 3 different ways of application", "result": "doesn't induce explant toxicity"}, {"measurement": "explant viability", "setting": "human skin explants [1]; D5 and D10, 3 concentrations, 3 methods of application (topical, systemic, intradermal), skin type III", "result": "no significant alterations of explant viability"}, {"measurement": "explant alterations", "setting": "human skin explants [1]; application of 100 μM, D10", "result": "very slight alterations"}, {"measurement": "alteration of the papillary dermis", "setting": "human skin explants [1]; topical administration, 100 μM", "result": "no modification of the papillary dermis"}, {"measurement": "explant viability in the epidermis (macroscopic evaluation)", "setting": "human skin explants [1]; topical administration, 100 μM", "result": "very slight decrease in the viability"}, {"measurement": "increase of melanin present in the media (extracellular)", "setting": "[2]; p<0.01, n=10", "result": "+123%"}, {"measurement": "increase of intracellular melanin content", "setting": "[2]; p<0.01, n=12", "result": "+46%"}, {"measurement": "melanogenesis", "setting": "human skin explants [3]", "result": "rise of melanogenesis equivalent to the one obtained with a chronic UVA irradiation"}]}]}
